Reference: ChEMBL document CHEMBL1153594, “Design, synthesis and biological evaluation of novel 2-[(2,4-diaryl-3-azabicyclo[3.3.1]nonan-9-ylidene)hydrazono]-1,3-thiazolidin-4-ones as a new class of antimicrobial agents” (2009)
Converted amounts (≈) assume the structure as drawn. The source made the active and inactive calls. The rule behind the calls is not given here.

What was measured:
Klebsiella pneumoniae [1] = experiment: Antibacterial activity against Klebsiella pneumoniae ATCC 15490 at 200 ug/mL after 24 hrs by twofold serial dilution method; type: functional, organism-based
Rhizopus [2] = experiment: Antifungal activity against Rhizopus sp. ATCC 2915 after 72 to 96 hrs by twofold serial dilution method; type: functional
Aspergillus niger [3] = experiment: Antifungal activity against Aspergillus niger ATCC 598 after 72 to 96 hrs by twofold serial dilution method; type: functional
Candida albicans [4] = experiment: Antifungal activity against Candida albicans ATCC 3122 by twofold serial dilution method; type: functional
Aspergillus flavus [5] = experiment: Antifungal activity against Aspergillus flavus ATCC 485 after 72 to 96 hrs by twofold serial dilution method; type: functional
Bacillus subtilis = experiment: Antibacterial activity against Bacillus subtilis ATCC 451 after 24 hrs by twofold serial dilution method; type: functional; details: ATCC 451, 24 h
Staphylococcus aureus = experiment: Antibacterial activity against Staphylococcus aureus ATCC 25825 after 24 hrs by twofold serial dilution method; type: functional; details: ATCC 25825, 24 h
Escherichia coli [6] = experiment: Antibacterial activity against Escherichia coli ATCC 25835 after 24 hrs by twofold serial dilution method; type: functional; details: ATCC 25835, 24 h
Cryptococcus neoformans = experiment: Antifungal activity against Cryptococcus neoformans ATCC 3312 after 72 to 96 hrs by twofold serial dilution method; type: functional
[7] = test system: Salmonella enterica subsp. enterica; experiment: Antibacterial activity against Salmonella typhi ATCC 24915 after 24 hrs by twofold serial dilution method; type: functional, Salmonella enterica subsp. enterica serovar Typhi; details: ATCC 24915, 24 h
Klebsiella pneumoniae [8] = experiment: Antibacterial activity against Klebsiella pneumoniae ATCC 15490 after 24 hrs by twofold serial dilution method; type: functional; details: ATCC 15490, 24 h
Aspergillus niger [9] = experiment: Antifungal activity against Aspergillus niger ATCC 598 at 200 ug/mL after 72 to 96 hrs by twofold serial dilution method; type: functional, organism-based
Candida albicans [10] = experiment: Antifungal activity against Candida albicans ATCC 3122 at 200 ug/mL by twofold serial dilution method; type: functional, organism-based
[11] = test system: Salmonella enterica subsp. enterica; experiment: Antibacterial activity against Salmonella typhi ATCC 24915 at 200 ug/mL after 24 hrs by twofold serial dilution method; type: functional, organism-based; details: Salmonella enterica subsp. enterica serovar Typhi
Aspergillus flavus [12] = experiment: Antifungal activity against Aspergillus flavus ATCC 485 at 200 ug/mL after 72 to 96 hrs by twofold serial dilution method; type: functional, organism-based
Escherichia coli [13] = experiment: Antibacterial activity against Escherichia coli ATCC 25835 at 200 ug/mL after 24 hrs by twofold serial dilution method; type: functional, organism-based
Rhizopus [14] = experiment: Antifungal activity against Rhizopus sp. ATCC 2915 at 200 ug/mL after 72 to 96 hrs by twofold serial dilution method; type: functional, organism-based

SMILES	MIC (Klebsiella pneumoniae [1])	MIC (Rhizopus [2])	MIC (Aspergillus niger [3])	MIC (Candida albicans [4])	MIC (Aspergillus flavus [5])	MIC (Bacillus subtilis)	MIC (Staphylococcus aureus)	MIC (Escherichia coli [6])	MIC (Cryptococcus neoformans)	MIC [7]	MIC (Klebsiella pneumoniae [8])	MIC (Aspergillus niger [9])	MIC (Candida albicans [10])	MIC [11]	MIC (Aspergillus flavus [12])	MIC (Escherichia coli [13])	MIC (Rhizopus [14])
O=C1CS/C(=N/N=C2C3CCCC2C(c2ccccc2Cl)NC3c2ccccc2Cl)N1 (stereo not given)	inactive	6.25 µg/mL (≈ 13.2 µM)	25 µg/mL (≈ 52.8 µM)	50 µg/mL (≈ 106 µM)	50 µg/mL (≈ 106 µM)	100 µg/mL (≈ 211 µM)	100 µg/mL (≈ 211 µM)	25 µg/mL (≈ 52.8 µM)	100 µg/mL (≈ 211 µM)	50 µg/mL (≈ 106 µM)	–	–	–	–	–	–	–
COc1cccc(C2NC(c3cccc(OC)c3)C3CCCC2C3=N/N=C2/NC(=O)CS2)c1 (stereo not given)	–	100 µg/mL (≈ 215 µM)	50 µg/mL (≈ 108 µM)	50 µg/mL (≈ 108 µM)	200 µg/mL (≈ 430 µM)	100 µg/mL (≈ 215 µM)	100 µg/mL (≈ 215 µM)	50 µg/mL (≈ 108 µM)	100 µg/mL (≈ 215 µM)	6.25 µg/mL (≈ 13.5 µM)	50 µg/mL (≈ 108 µM)	–	–	–	–	–	–
O=C1CS/C(=N\N=C2C3CCCC2C(c2ccccc2)NC3c2ccccc2)N1 (stereo not given)	–	200 µg/mL (≈ 494 µM)	–	50 µg/mL (≈ 124 µM)	200 µg/mL (≈ 494 µM)	25 µg/mL (≈ 61.8 µM)	50 µg/mL (≈ 124 µM)	12.5 µg/mL (≈ 30.9 µM)	50 µg/mL (≈ 124 µM)	100 µg/mL (≈ 247 µM)	50 µg/mL (≈ 124 µM)	inactive	–	–	–	–	–
COc1ccc(C2NC(c3ccc(OC)cc3)C3CCCC2C3=NNC(N)=S)cc1 (stereo not given)	–	200 µg/mL (≈ 471 µM)	200 µg/mL (≈ 471 µM)	–	100 µg/mL (≈ 236 µM)	50 µg/mL (≈ 118 µM)	25 µg/mL (≈ 58.9 µM)	50 µg/mL (≈ 118 µM)	50 µg/mL (≈ 118 µM)	200 µg/mL (≈ 471 µM)	100 µg/mL (≈ 236 µM)	–	inactive	–	–	–	–
Cc1ccc(C2NC(c3ccc(C)cc3)C3CCCC2C3=NNC(N)=S)cc1 (stereo not given)	–	100 µg/mL (≈ 255 µM)	200 µg/mL (≈ 509 µM)	200 µg/mL (≈ 509 µM)	–	100 µg/mL (≈ 255 µM)	12.5 µg/mL (≈ 31.8 µM)	50 µg/mL (≈ 127 µM)	200 µg/mL (≈ 509 µM)	–	100 µg/mL (≈ 255 µM)	–	–	inactive	inactive	–	–
O=C1CS/C(=N\N=C2C3CCCC2C(c2ccc(F)cc2)NC3c2ccc(F)cc2)N1 (stereo not given)	–	100 µg/mL (≈ 227 µM)	200 µg/mL (≈ 454 µM)	6.25 µg/mL (≈ 14.2 µM)	100 µg/mL (≈ 227 µM)	25 µg/mL (≈ 56.8 µM)	6.25 µg/mL (≈ 14.2 µM)	50 µg/mL (≈ 114 µM)	25 µg/mL (≈ 56.8 µM)	12.5 µg/mL (≈ 28.4 µM)	100 µg/mL (≈ 227 µM)	–	–	–	–	–	–
Cc1ccc(C2NC(c3ccc(C)cc3)C3CCCC2C3=N/N=C2/NC(=O)CS2)cc1 (stereo not given)	–	50 µg/mL (≈ 116 µM)	–	100 µg/mL (≈ 231 µM)	25 µg/mL (≈ 57.8 µM)	25 µg/mL (≈ 57.8 µM)	25 µg/mL (≈ 57.8 µM)	50 µg/mL (≈ 116 µM)	100 µg/mL (≈ 231 µM)	100 µg/mL (≈ 231 µM)	25 µg/mL (≈ 57.8 µM)	inactive	–	–	–	–	–
NC(=S)NN=C1C2CCCC1C(c1ccccc1Cl)NC2c1ccccc1Cl (stereo not given)	–	25 µg/mL (≈ 57.7 µM)	100 µg/mL (≈ 231 µM)	200 µg/mL (≈ 461 µM)	100 µg/mL (≈ 231 µM)	100 µg/mL (≈ 231 µM)	200 µg/mL (≈ 461 µM)	100 µg/mL (≈ 231 µM)	100 µg/mL (≈ 231 µM)	50 µg/mL (≈ 115 µM)	50 µg/mL (≈ 115 µM)	–	–	–	–	–	–
COc1ccc(C2NC(c3ccc(OC)cc3)C3CCCC2C3=N/N=C2/NC(=O)CS2)cc1 (stereo not given)	–	200 µg/mL (≈ 430 µM)	100 µg/mL (≈ 215 µM)	100 µg/mL (≈ 215 µM)	–	50 µg/mL (≈ 108 µM)	6.25 µg/mL (≈ 13.5 µM)	100 µg/mL (≈ 215 µM)	50 µg/mL (≈ 108 µM)	100 µg/mL (≈ 215 µM)	25 µg/mL (≈ 53.8 µM)	–	–	–	inactive	–	–
C[C@@H]1[C@H](O)[C@@H](C)/C=C/C=C/C=C/C=C/C=C/C=C/C=C/[C@H](O[C@@H]2O[C@H](C)[C@@H](O)[C@H](N)[C@@H]2O)C[C@@H]2O[C@](O)(C[C@@H](O)C[C@@H](O)[C@H](O)CC[C@@H](O)C[C@@H](O)CC(=O)O[C@H]1C)C[C@H](O)[C@H]2C(=O)O [AMPHOTERICIN B]	–	25 µg/mL (≈ 27.1 µM)	50 µg/mL (≈ 54.1 µM)	25 µg/mL (≈ 27.1 µM)	50 µg/mL (≈ 54.1 µM)	–	–	–	25 µg/mL (≈ 27.1 µM)	–	–	–	–	–	–	–	–
CN[C@@H]1[C@H](O[C@H]2[C@H](O[C@H]3[C@H](O)[C@@H](O)[C@H](N=C(N)N)[C@@H](O)[C@@H]3N=C(N)N)O[C@@H](C)[C@]2(O)C=O)O[C@@H](CO)[C@H](O)[C@H]1O [STREPTOMYCIN]	–	–	–	–	–	12.5 µg/mL (≈ 21.5 µM)	50 µg/mL (≈ 86 µM)	12.5 µg/mL (≈ 21.5 µM)	–	50 µg/mL (≈ 86 µM)	25 µg/mL (≈ 43 µM)	–	–	–	–	–	–
COc1cccc(C2NC(c3cccc(OC)c3)C3CCCC2C3=NNC(N)=S)c1 (stereo not given)	–	100 µg/mL (≈ 236 µM)	50 µg/mL (≈ 118 µM)	50 µg/mL (≈ 118 µM)	–	50 µg/mL (≈ 118 µM)	50 µg/mL (≈ 118 µM)	25 µg/mL (≈ 58.9 µM)	100 µg/mL (≈ 236 µM)	200 µg/mL (≈ 471 µM)	100 µg/mL (≈ 236 µM)	–	–	–	inactive	–	–
NC(=S)NN=C1C2CCCC1C(c1ccc(Cl)cc1)NC2c1ccc(Cl)cc1 (stereo not given)	–	50 µg/mL (≈ 115 µM)	100 µg/mL (≈ 231 µM)	25 µg/mL (≈ 57.7 µM)	6.25 µg/mL (≈ 14.4 µM)	100 µg/mL (≈ 231 µM)	25 µg/mL (≈ 57.7 µM)	6.25 µg/mL (≈ 14.4 µM)	25 µg/mL (≈ 57.7 µM)	100 µg/mL (≈ 231 µM)	200 µg/mL (≈ 461 µM)	–	–	–	–	–	–
NC(=S)NN=C1C2CCCC1C(c1ccc(F)cc1)NC2c1ccc(F)cc1 (stereo not given)	–	100 µg/mL (≈ 250 µM)	100 µg/mL (≈ 250 µM)	50 µg/mL (≈ 125 µM)	6.25 µg/mL (≈ 15.6 µM)	25 µg/mL (≈ 62.4 µM)	50 µg/mL (≈ 125 µM)	–	25 µg/mL (≈ 62.4 µM)	12.5 µg/mL (≈ 31.2 µM)	100 µg/mL (≈ 250 µM)	–	–	–	–	inactive	–
O=C1CS/C(=N\N=C2C3CCCC2C(c2cccc(F)c2)NC3c2cccc(F)c2)N1 (stereo not given)	inactive	6.25 µg/mL (≈ 14.2 µM)	100 µg/mL (≈ 227 µM)	6.25 µg/mL (≈ 14.2 µM)	50 µg/mL (≈ 114 µM)	50 µg/mL (≈ 114 µM)	100 µg/mL (≈ 227 µM)	100 µg/mL (≈ 227 µM)	12.5 µg/mL (≈ 28.4 µM)	6.25 µg/mL (≈ 14.2 µM)	–	–	–	–	–	–	–
NC(=S)NN=C1C2CCCC1C(c1cccc(F)c1)NC2c1cccc(F)c1 (stereo not given)	–	100 µg/mL (≈ 250 µM)	25 µg/mL (≈ 62.4 µM)	25 µg/mL (≈ 62.4 µM)	50 µg/mL (≈ 125 µM)	25 µg/mL (≈ 62.4 µM)	6.25 µg/mL (≈ 15.6 µM)	100 µg/mL (≈ 250 µM)	25 µg/mL (≈ 62.4 µM)	50 µg/mL (≈ 125 µM)	25 µg/mL (≈ 62.4 µM)	–	–	–	–	–	–
NC(=S)NN=C1C2CCCC1C(c1ccccc1)NC2c1ccccc1 (stereo not given)	–	–	200 µg/mL (≈ 549 µM)	200 µg/mL (≈ 549 µM)	200 µg/mL (≈ 549 µM)	100 µg/mL (≈ 274 µM)	50 µg/mL (≈ 137 µM)	100 µg/mL (≈ 274 µM)	100 µg/mL (≈ 274 µM)	200 µg/mL (≈ 549 µM)	200 µg/mL (≈ 549 µM)	–	–	–	–	–	inactive
O=C1CS/C(=N\N=C2C3CCCC2C(c2ccc(Cl)cc2)NC3c2ccc(Cl)cc2)N1 (stereo not given)	–	6.25 µg/mL (≈ 13.2 µM)	25 µg/mL (≈ 52.8 µM)	25 µg/mL (≈ 52.8 µM)	100 µg/mL (≈ 211 µM)	25 µg/mL (≈ 52.8 µM)	6.25 µg/mL (≈ 13.2 µM)	100 µg/mL (≈ 211 µM)	12.5 µg/mL (≈ 26.4 µM)	6.25 µg/mL (≈ 13.2 µM)	50 µg/mL (≈ 106 µM)	–	–	–	–	–	–
